Where two headings read alike, the source gives them in different places.
Experiments:
[1] = molecular target: GDP-bound HRAS wild-type protein (Homo sapiens, UniProt P01112); assay: Binding to HRAS by surface plasmon resonance (SPR), Single Cycle Kinetics; settings: for HRAS/KRAS (ratio of KD value for HRAS to KD value for KRAS): SPR, GDP-bound HRAS wild-type protein vs GDP-bound KRAS wild-type protein
[2] = system: human lung cancer strain NCI-H441;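 further: cell proliferation inhibition after four days measured by CellTiter-Glo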
[3] = molecular target: GDP-bound KRAS wild-type protein (Homo sapiens, UniProt P01116); assay: Binding to KRAS by surface plasmon resonance (SPR), Single Cycle Kinetics; settings: GDP-bound KRAS wild-type protein, read-out: KRAS KD
[4] = molecular target: GDP-bound NRAS wild-type protein (Homo sapiens, UniProt P01111); assay: Binding to NRAS by surface plasmon resonance (SPR), Single Cycle Kinetics; settings: for NRAS/KRAS (ratio of KD value for NRAS to KD value for KRAS): SPR, GDP-bound NRAS wild-type protein vs GDP-bound KRAS wild-type protein
[5] = SPR, Single Cycle Kinetics, 1:1 binding model

GDP-bound NRAS wild-type protein, sequence (P01111 whole entry): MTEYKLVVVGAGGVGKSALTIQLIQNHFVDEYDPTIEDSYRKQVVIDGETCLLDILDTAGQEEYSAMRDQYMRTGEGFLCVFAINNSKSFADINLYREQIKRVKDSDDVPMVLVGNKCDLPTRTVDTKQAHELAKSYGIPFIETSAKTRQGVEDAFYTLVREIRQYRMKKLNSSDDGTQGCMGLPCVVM
GDP-bound KRAS wild-type protein, sequence (P01116 whole entry): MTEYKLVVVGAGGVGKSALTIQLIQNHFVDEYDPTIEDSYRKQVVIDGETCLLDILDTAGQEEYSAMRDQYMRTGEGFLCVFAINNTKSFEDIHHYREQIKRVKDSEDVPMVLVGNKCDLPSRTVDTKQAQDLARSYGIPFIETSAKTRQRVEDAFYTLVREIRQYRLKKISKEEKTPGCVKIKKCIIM
GDP-bound HRAS wild-type protein, sequence (P01112 whole entry): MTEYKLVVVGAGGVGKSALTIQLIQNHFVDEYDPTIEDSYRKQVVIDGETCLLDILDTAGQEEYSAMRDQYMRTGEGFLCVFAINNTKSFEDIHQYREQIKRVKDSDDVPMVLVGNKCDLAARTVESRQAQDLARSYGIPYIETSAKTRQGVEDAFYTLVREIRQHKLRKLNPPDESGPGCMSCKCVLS

| Structure (SMILES) | IC50 [2] [nM] | Kd [3, 5] [nM] | Kd ([3]; SPR, Single Cycle Kinetics) [nM] | Kd ([3]; SPR Single Cycle Kinetics, 1:1 binding model) [nM] | HRAS/KRAS (ratio of KD value for HRAS to KD value for KRAS) ([1]; KD ratio class) | NRAS/KRAS (ratio of KD value for NRAS to KD value for KRAS) ([4]; KD ratio class) | HRAS/KRAS (ratio of KD value for HRAS to KD value for KRAS) [1] | NRAS/KRAS (ratio of KD value for NRAS to KD value for KRAS) [4] | HRAS/KRAS (ratio of KD value with respect to GDP-bound HRAS wild-type protein to KD value with respect to KRAS) ([1]; SPR KD ratio HRAS/KRAS, class symbols) | NRAS/KRAS (ratio of KD value with respect to GDP-bound NRAS wild-type protein to KD value with respect to KRAS) ([4]; SPR KD ratio NRAS/KRAS, class symbols) |
| --- | --- | --- | --- | --- | --- | --- | --- | --- | --- | --- |
| CCO[C@@H]1C[C@H]2C(=O)NC3(CCC3)C(=O)N(C)[C@@H](C3CCCC3)C(=O)N(C)[C@H](C(=O)N3CCOCC3)CC(=O)N(C)[C@@H](CC)C(=O)N[C@@H]([C@@H](C)CC)C(=O)N(C)CC(=O)N(C)[C@H]3CC[C@@H](C)CN(C3=O)[C@@H](Cc3ccc(C(F)(F)F)cc3)C(=O)N(C)CC(=O)N[C@@H](CCc3ccc(C(F)(F)F)c(Cl)c3)C(=O)N2C1 [PP1378] | 6.6 | 0.081 |  |  | C (A compound having a KD ratio of 0.1 or more and less than 3 is denoted as C) | B (a compound having 3 or more and less than 10 is denoted as B) |  |  |  |  |
| CCO[C@@H]1C[C@H]2C(=O)NC3(CCC3)C(=O)N(C)[C@@H](C3CCCC3)C(=O)N(CC)[C@H](C(=O)N3CCOCC3)CC(=O)N(C)[C@@H](CC)C(=O)N[C@@H]([C@@H](C)CC)C(=O)N(C)CC(=O)N(C)[C@H]3C/C=C\CCN(C3=O)[C@@H](Cc3ccc(C(F)(F)F)cc3)C(=O)N(C)CC(=O)N[C@@H](CCc3cc(F)c(C(F)(F)F)c(F)c3)C(=O)N2C1 [PP0979] | 281 |  | 1.7 |  |  |  | A (a compound having 10 or more and less than 20 is denoted as A) | AA (a compound having 20 or more is denoted as AA) |  |  |
| CCO[C@@H]1C[C@H]2C(=O)NC3(CCCC3)C(=O)N(C)[C@@H](C3CCCC3)C(=O)N(C)[C@H](C(=O)N(C)C)CC(=O)N(C)[C@@H](CC)C(=O)N[C@@H]([C@@H](C)CC)C(=O)N(C)CC(=O)N(C)[C@H]3CC[C@@H](C)CN(C3=O)[C@@H](Cc3ccc(C(F)(F)F)cc3)C(=O)N(C)CC(=O)N[C@@H](CCc3cc(F)c(C(F)(F)F)c(F)c3)C(=O)N2C1 [PP1370] | 2.3 | 0.057 |  |  | C (A compound having a KD ratio of 0.1 or more and less than 3 is denoted as C) | C (A compound having a KD ratio of 0.1 or more and less than 3 is denoted as C) |  |  |  |  |

More lines, main results first:

| IC50 [2] [nM] | Kd [3, 5] [nM] | Kd ([3]; SPR, Single Cycle Kinetics) [nM] | Kd ([3]; SPR Single Cycle Kinetics, 1:1 binding model) [nM] | Structure (SMILES) | HRAS/KRAS (ratio of KD value for HRAS to KD value for KRAS) ([1]; KD ratio class) | NRAS/KRAS (ratio of KD value for NRAS to KD value for KRAS) ([4]; KD ratio class) | HRAS/KRAS (ratio of KD value for HRAS to KD value for KRAS) [1] | NRAS/KRAS (ratio of KD value for NRAS to KD value for KRAS) [4] | HRAS/KRAS (ratio of KD value with respect to GDP-bound HRAS wild-type protein to KD value with respect to KRAS) ([1]; SPR KD ratio HRAS/KRAS, class symbols) | NRAS/KRAS (ratio of KD value with respect to GDP-bound NRAS wild-type protein to KD value with respect to KRAS) ([4]; SPR KD ratio NRAS/KRAS, class symbols) |
| --- | --- | --- | --- | --- | --- | --- | --- | --- | --- | --- |
| 18.8 | 0.19 |  |  | CCCOC[C@H]1C(=O)N[C@@H]([C@@H](C)CC)C(=O)N(C)CC(=O)N(C)[C@H]2C/C=C\CCN(C2=O)[C@@H](Cc2ccc(C(F)(F)F)cc2)C(=O)N(C)CC(=O)N[C@@H](CCc2cc(F)c(C(F)(F)F)c(F)c2)C(=O)N2C[C@H](OCC)C[C@H]2C(=O)NC2(CCCC2)C(=O)N(C)[C@@H](C2CCCC2)C(=O)N(C)[C@H](C(=O)N2CCCC2)CC(=O)N1C [PP1399] | A (a compound having 10 or more and less than 20 is denoted as A) | A (a compound having 10 or more and less than 20 is denoted as A) |  |  |  |  |
| 3.4 | 0.11 |  |  | CCCC[C@H]1C(=O)N[C@@H]([C@@H](C)CC)C(=O)N(C)CC(=O)N(C)[C@H]2C/C=C\CCN(C2=O)[C@@H](Cc2ccc(C(F)(F)F)cc2)C(=O)N(C)CC(=O)N[C@@H](CCc2cc(F)c(C(F)(F)F)c(F)c2)C(=O)N2C[C@H](OCC)C[C@H]2C(=O)NC2(CCC2)C(=O)N(C)[C@@H](C2CCCC2)C(=O)N(C)[C@H](C(=O)N(C)CC)CC(=O)N1C [PP1558] | B (a compound having 3 or more and less than 10 is denoted as B) | A (a compound having 10 or more and less than 20 is denoted as A) |  |  |  |  |
| 43.8 |  |  | 0.53 | CC[C@H](C)[C@@H]1NC(=O)[C@H](COC)N(C)C(=O)C[C@@H](C(=O)N(C)C)N(C)C(=O)[C@H](C2CCCC2)N(C)C(=O)C2(CC(C)(C)C2)NC(=O)[C@@H]2C[C@@H](OC3CCC3)CN2C(=O)[C@H](CCc2cc(F)c(C(F)(F)F)c(F)c2)NC(=O)CN(C)C(=O)[C@H](CC2CCC(F)(F)CC2)N2CC/C=C\C[C@@H](C2=O)N(C)C(=O)CN(C2CC2)C1=O [PP2622] |  |  |  |  | B (a compound having 3 or more and less than 10 is denoted as B) | A (a compound having 10 or more and less than 20 is denoted as A) |

— patent US20240158446A1, “CYCLIC COMPOUND HAVING SELECTIVE INHIBITORY ACTION ON KRAS OVER HRAS AND NRAS” (CHUGAI SEIYAKU KABUSHIKI KAISHA, priority 2021, published 2024)
